Test results reported in US8193200B2, “Antagonists of A2B adenosine receptors for treatment of inflammatory bowel disease” (University of Virginia Patent Foundation, priority 2007, dated 2012).

Columns and labels:
Type in all cases: in vivo, mouse
IL-6 and KC secretion = test: IL-6 and KC ELISA in colon organ culture supernatants, IL-10-/- model
Procedure: In the DSS-model proinflammatory cytokines were measured by real time PCR. Total RNA was extracted from DSS treated, DSS+ATL-801 and control colonic tissue using the TRizol reagent. After quantification, a reverse transcription (RT) reaction was performed with 2 μg of each sample and oligo-dT primer, using the SuperScript First strand synthesis system for RT-PCR (Invitrogen, CA). The real-time iCycler sequence detection system (Bio-Rad) was used for the real-time RT-PCR. Briefly, 3 ng of reverse transcribed cDNA, 500 nM of gene-specific primers and the iQ SYBR Green Supermix (Biorad, Hercules, Calif.) were amplified at 50° C. for 2 min and 95° C. for 10 min, followed by 40 cycles of 95° C. for 15 s and 60° C. for 1 min. The 36B4 expression levels were used as reference, and fold-induction was calculated using a standard curve. For graphical representation of quantitative PCR data, raw cycle threshold values (Ct values) obtained for treated mice were deducted from the Ct value obtained for internal 36B4 transcript levels, using the Ct method as follows: ΔΔCT=(Ct Target−Ct 36B4)treatment−(Ct Target−Ct 36B4) no treatment, and the final data were derived from 2^−ΔΔCT. Primers used: IL-6 sense 5′-ACAAGTCGGAGGCTTAATTACACAT-3′ (SEQ ID NO:1) antisense 5′-TTGCCATTGCACAACTCTTTTC-3′ (SEQ ID NO:2), MIP-2 sense 5AGT GAA CTG CGC TGT CAA TGC-3′ (SEQ ID NO:3) antisense 5′ AGGCAAACTTTTTGACCGCC 3′ (SEQ ID NO:4). In IL-10−/− model proinflammatory cytokines were measured by ELISA in organ cultures. Colon organ cultures were prepared from IL-10^−/− mice with and with out ATL-801 along with piroxicam. Colons were dissected from mice and flushed with cold PBS to remove fecal matter. Each colon was cut in to 1 cm length and washed in HBSS with pencillin/streptomycin and cultured in serum free RPMI-1640 supplemented with penicillin and streptomycin. […] Supernatants were harvested after 24 hours, centrifuged and stored at −80° C. before IL-6 and keratinocyte derived chemokine, KC levels were measured by ELISA. […] IL-8 was measured in the supernatants by ELISA.

[1] = system: colonic crypt epithelial cells; test: ki67 proliferation and caspase-3/TUNEL apoptosis staining of colonic crypts, DSS colitis
Procedure: (§1) Apoptosis: Apoptotic cells were determined in colonic crypts of the mice that received ATL-801. Apoptotic cells were identified by fluorescent double staining using caspase-3 and terminal deoxyuridine nick-end labeling (TUNEL) as a secondary method to detect apoptosis. After deparaffinization and hydration, paraffin sections of colon were retrieved for antigens in a pressure cooker with sodium citrate (pH 6.0, 10 mM) for 10 min. After cooling, the sections were quenched in 3% H2O2 in methanol and then blocked with normal goat serum. Caspase-3 was detected with rabbit anti-cleaved-caspase-3 IgG overnight at 4° C. followed by a labeled streptavidin-biotin (LSAB) staining method consisting of successive application of secondary antibody-streptavidin, biotin-horseradish peroxidase, and cyanine-3 tyramide. TUNEL immunohistochemistry was performed using the in situ cell death detection kit, fluorescein, as described by the manufacturer (Roche Applied Science, Indianapolis, Ind.). For IL-10 model, frozen sections were used to stain cleaved caspase 3 and TUNEL. Nuclei were attained by Hoechst to count total crypt cell number. The apoptotic index for both morphologically defined apoptotic cells and fluorescent staining with caspase-3 was calculated as the number of apoptotic cells per crypt. […]

IL-6 and MIP-2 mRNA = test: Real time PCR of proinflammatory cytokine mRNA in colonic tissue, DSS model
Procedure: In the DSS-model proinflammatory cytokines were measured by real time PCR. Total RNA was extracted from DSS treated, DSS+ATL-801 and control colonic tissue using the TRizol reagent. After quantification, a reverse transcription (RT) reaction was performed with 2 μg of each sample and oligo-dT primer, using the SuperScript First strand synthesis system for RT-PCR (Invitrogen, CA). The real-time iCycler sequence detection system (Bio-Rad) was used for the real-time RT-PCR. […] The 36B4 expression levels were used as reference, and fold-induction was calculated using a standard curve. For graphical representation of quantitative PCR data, raw cycle threshold values (Ct values) obtained for treated mice were deducted from the Ct value obtained for internal 36B4 transcript levels, using the Ct method as follows: ΔΔCT=(Ct Target−Ct 36B4)treatment−(Ct Target−Ct 36B4) no treatment, and the final data were derived from 2^−ΔΔCT. […] In IL-10−/− model proinflammatory cytokines were measured by ELISA in organ cultures. […] Supernatants were harvested after 24 hours, centrifuged and stored at −80° C. before IL-6 and keratinocyte derived chemokine, KC levels were measured by ELISA. […] IL-8 was measured in the supernatants by ELISA.

A2b receptor expression = test: Western blot of A2b receptor in colonic lysates, DSS model; conditions: baseline and after DSS treatment
Description: Colonic tissue was homogenized and cell lysates were subjected to immunoblotting using anti-A2b receptor antibody (1:1000). β-tubulin was used as loading control. Blot shown is representative of 4 animals per condition.

[2] = system: colonic crypt epithelial cells; test: ki67 proliferation and TUNEL apoptosis staining, IL-10-/- model; conditions: IL-10-/- mice, piroxicam+ATL-801
Procedure: as §1

[3] = system: IL-10-/- mice with piroxicam induced colitis; test: Piroxicam induced colitis in IL-10-/- mice: body weight, histological score, colon length
Description: IL-10^−/− mice spontaneously develop a chronic, T-cell mediated, transmural colitis that shares many features with human Crohn's disease. Based on this model, there have been several clinical trials using IL-10 treatment for IBD in human patients 13 However, due to the inconsistency in the development of spontaneous colitis in IL-10^−/− mice, Berg and his colleagues have described rapid development of colitis in IL-10^−/− mice treated with a nonsteroidal anti-inflammatory drug piroxicam (NSAID)^9. Accordingly, mice were treated with piroxicam, 200 mg/kg diet, for two weeks to induce colitis. Mice were administered ATL-801 for a week prior to treatment with piroxicam, and ATL-801 treatment was continued during piroxicam administration. Two weeks after the induction of colitis, mice were euthanized, and colonic tissue was analyzed.
Assessment of body weights, stool consistency, and the presence of occult/gross blood by a guaic test (Hemoccult Sensa; Beckman Coulter, Fullerton, Calif.) were performed daily for each mouse. Colitis was quantified with a clinical and histological score, as described by Cooper, et. al. Clinical score was based on weight loss, stool consistency, and fecal blood (score range 0-12). Histological scoring was performed based on three variables, extent of inflammatory infiltrate, mucosal ulcers and severity of crypt (score range 0-11). IL-10^−/− mouse colon histological scoring (ranging from 0 to 4) was performed as described by Berg, et. al. to assess intestinal lesions and their severity.

CCCn1c(=O)n(C2CC2)c(=O)c2[nH]c(-c3ccc(N(CC)C(=O)c4cccnc4)nc3)nc21 [ATL-801]
effect of ATL-801 alone on IL-6 or IL-8 levels (IL-6 and KC secretion; ATL-801 alone (data not shown)): no effect | IL-6 levels in colon culture supernatant (IL-6 and KC secretion; IL-10-/- mice, piroxicam + ATL-801, 24 h culture, piroxicam alone 1.9±0.3, untreated 0.7±0.1): 0.46 ± 0.1 ng/mL | KC secretion in colon culture supernatant (IL-6 and KC secretion; IL-10-/- mice, piroxicam+ATL-801, piroxicam alone 5.6±0.6): 3.7 ± 0.8 ng/mL | proliferation index, ki67 positive cells ([1]; DSS+ATL, average positive cells per crypt, control 18.67±1.62, DSS 5.95±0.31): 15.13±0.44 | TUNEL positive cells out of total number of cells counted in each crypt ([1]; DSS+ATL-801, DSS 16.3±2.3): 3.7±0.7 | IL-6 mRNA in colonic mucosal tissue (IL-6 and MIP-2 mRNA; DSS + antagonist, normalized to 36B4, DSS 7.2±1.7): 1.8±0.7 fold increase compared to untreated | MIP-2 mRNA levels (IL-6 and MIP-2 mRNA; DSS+ATL-801, fold increase over control (FIG. 5B), DSS 28.1±3.8): 13.62±3.0 | effect on A2b receptor expression (Western blot) (A2b receptor expression): affected neither baseline level of A2b receptor nor DSS-induced increase in A2b receptor expression | TUNEL positive cells out of total (around 500) number of cells counted in each crypt ([2]; control 4.7±1.5, piroxicam 4.3±2.3): 10±1.0 | proliferation index, ki67 positive staining ([2]; control 8.0±0.7, piroxicam alone 28.8±2.8): 18.5±1.4 | histology, ATL-801 alone ([3]; IL-10-/- mice treated with ATL-801 alone (data not shown)): normal histology | colon length ([3]; IL-10-/- mice, ATL-801+piroxicam, piroxicam 7.0±0.25 cm): 8.4±0.23 cm | mean histological score ([3]; IL-10-/- mice, piroxicam + ATL-801, score 0 to 4, piroxicam 2.8±1.0): 1.3±0.3 | body weight change (Δ) ([3]; IL-10-/- mice, piroxicam+ATL-801 10 mg/Kg diet, FIG. 8A percent body weight change, piroxicam Δ−2.05±0.7): +0.2±0.5
